# Assay: recombinant barcode read abundance after kanamycin selection (control-corrected) (log10(CPM+1)); higher = more efficient recombination; sequences stand for … in AGTGCAGAGAAAATCGGCCAGTTTTCTCTGCCTGCAGTCCGCATGCCGT…AGATTTATGCAGCGGACTGCCTTTCTCCCAAAGTGATAAACCGGACAGTATCATGGACCGGTTTTCCCGGTAATCCGTATTTGCAAGGTTGGTTTCACT; site = the 11-nt target
# How it was run: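 Values are log10(CPM+1) from a pooled E. coli screen of targets paired with IS621 bridge RNA target-binding loops. Recombination efficiency here means counts per million of recombinant-junction barcodes, averaged and control-corrected. Plates were chloramphenicol/ampicillin LB agar for the control and chloramphenicol/ampicillin/kanamycin with 0.1 mM IPTG, two replicates each.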
# 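Further: IS621 recombinase and bridge RNA in Escherichia coli cells.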
row,Sequence,recombinant barcode read abundance (log10)
1,TAGGCGCCTTGGGTTCTAACCTGTTGCAT (site TAGGCGCCTAC),0.723
2,TAGGCGCCTTGGGTTCTAACCTGTTGCAT (site TAGGCGCCTAG),0.0713
3,TAGGCGCCTTGGGTTCTAACCTGTTGCAT (site TAGGCGCCTAT),0.299
4,TAGGCGCCTTGGGTTCTAACCTGTTGCGT (site TAGGCGCCTAA),0.0787
5,TAGGCGCCTTGGGTTCTAACCTGTTGCGT (site TAGGCGCCTAC),0.735
6,TAGGCGCCTTGGGTTCTAACCTGTTGCGT (site TAGGCGCCTAG),0.0904
7,TAGGCGCCTTGGGTTCTAACCTGTTGCGT (site TAGGCGCCTAT),0.249
8,TAGGCGGCTTGGGTTCTAACCTGTTGCGT (site AGCTGTCCTCT),0.0593
9,TAGGCGGCTTGGGTTCTAACCTGTTGCGT (site TAGGCGGCTAC),2.63
10,TAGGCTCCTTGGGTTCTAACCTGTTGCAA (site TAGGCTCCTAT),0.309
11,TAGGCTCCTTGGGTTCTAACCTGTTGCAA (site TAGGCTCCTCT),0.0906
12,TAGGCTCCTTGGGTTCTAACCTGTTGCAA (site TAGGCTCCTGT),0
13,TAGGCTCCTTGGGTTCTAACCTGTTGCAA (site TAGGCTCCTTT),1.41
14,TAGGCTCCTTGGGTTCTAACCTGTTGCCG (site TAGCCTACTCG),0.00951
15,TAGGCTCCTTGGGTTCTAACCTGTTGCCG (site TAGGCTCCTCG),0.412
16,TAGGCTCCTTGGGTTCTAACCTGTTGCCT (site TAAGATCCTAG),0.205
17,TAGGCTCCTTGGGTTCTAACCTGTTGCCT (site TAGGCTCCTAG),0
18,TAGGGGACTTGGGTTCTAACCTGTTGCAA (site CGTCCTGCTAA),0.0997
19,TAGGGGACTTGGGTTCTAACCTGTTGCAA (site TAGGGGACTTT),2.27
20,TAGGTATCTTGGGTTCTAACCTGTTGCAG (site CCTTGTGCTAC),0.156
21,TAGGTATCTTGGGTTCTAACCTGTTGCAG (site TAGGTATCTCT),2.01
22,TAGGTCCCTTGGGTTCTAACCTGTTGCAT (site TAGGTACCTAT),0.389

row,Sequence,recombinant barcode read abundance (log10)
1,TAGGTCCCTTGGGTTCTAACCTGTTGCAT (site TAGGTCCCTAT),1.85
2,TAGGTCCCTTGGGTTCTAACCTGTTGCAT (site TAGGTGCCTAT),0.0967
3,TAGGTCCCTTGGGTTCTAACCTGTTGCAT (site TAGGTTCCTAT),0.228
4,TAGGTCCCTTGGGTTCTAACCTGTTGCGA (site AAGGTCCCTCC),0.0896
5,TAGGTCCCTTGGGTTCTAACCTGTTGCGA (site TAGGTCCCTTC),3.11
6,TAGTAAGCTTGGGTTCTAACCTGTTGCCT (site TAGTAAGCTAG),1.23
7,TAGTAAGCTTGGGTTCTAACCTGTTGCCT (site TAGTATCCTAG),0.088
8,TAGTACCCTTGGGTTCTAACCTGTTGCAA (site TAGTACCCTAT),0.0814
9,TAGTACCCTTGGGTTCTAACCTGTTGCAA (site TAGTACCCTCT),0.104
10,TAGTACCCTTGGGTTCTAACCTGTTGCAA (site TAGTACCCTGT),0.0816
11,TAGTACCCTTGGGTTCTAACCTGTTGCAA (site TAGTACCCTTT),0.801
12,TAGTACGCTTGGGTTCTAACCTGTTGCAG (site TAGTAAGCTCA),0.12
13,TAGTACGCTTGGGTTCTAACCTGTTGCAG (site TAGTACGCTCT),1.8
14,TAGTACGCTTGGGTTCTAACCTGTTGCTT (site ACACGGCCTCG),0.331
15,TAGTACGCTTGGGTTCTAACCTGTTGCTT (site TAGTACGCTAA),0.848
16,TAGTACTCTTGGGTTCTAACCTGTTGCTG (site TAGTACTCTAA),0.244
17,TAGTACTCTTGGGTTCTAACCTGTTGCTG (site TAGTACTCTCA),1.06
18,TAGTACTCTTGGGTTCTAACCTGTTGCTG (site TAGTACTCTGA),0.053
19,TAGTACTCTTGGGTTCTAACCTGTTGCTG (site TAGTACTCTTA),0.0609
20,TAGTAGTCTTGGGTTCTAACCTGTTGCAT (site TAGTAGTCTAA),0.503
21,TAGTAGTCTTGGGTTCTAACCTGTTGCAT (site TAGTAGTCTAC),1.14
22,TAGTAGTCTTGGGTTCTAACCTGTTGCAT (site TAGTAGTCTAG),0.596

row,Sequence,recombinant barcode read abundance (log10)
1,TAGTAGTCTTGGGTTCTAACCTGTTGCAT (site TAGTAGTCTAT),2.12
2,TAGTAGTCTTGGGTTCTAACCTGTTGCTT (site TAGTAGTCTAA),1.55
3,TAGTAGTCTTGGGTTCTAACCTGTTGCTT (site TAGTAGTCTAC),0.635
4,TAGTAGTCTTGGGTTCTAACCTGTTGCTT (site TAGTAGTCTAG),0.659
5,TAGTAGTCTTGGGTTCTAACCTGTTGCTT (site TAGTAGTCTAT),1.15
6,TAGTGATCTTGGGTTCTAACCTGTTGCCT (site TAATGATCTAG),0
7,TAGTGATCTTGGGTTCTAACCTGTTGCCT (site TACTGATCTAG),0.072
8,TAGTGATCTTGGGTTCTAACCTGTTGCCT (site TAGTGATCTAG),0.783
9,TAGTGATCTTGGGTTCTAACCTGTTGCCT (site TATTGATCTAG),0.0361
10,TAGTGGCCTTGGGTTCTAACCTGTTGCTA (site CCTGACTCTAT),0
11,TAGTGGCCTTGGGTTCTAACCTGTTGCTA (site TAGTGGCCTTA),0.132
12,TAGTGGTCTTGGGTTCTAACCTGTTGCTA (site TAGTGGTCTAT),0.403
13,TAGTGGTCTTGGGTTCTAACCTGTTGCTA (site TAGTGGTCTTA),1.01
14,TAGTTTCCTTGGGTTCTAACCTGTTGCGT (site TAGTATCCTAC),0.3
15,TAGTTTCCTTGGGTTCTAACCTGTTGCGT (site TAGTCTCCTAC),0.0219
16,TAGTTTCCTTGGGTTCTAACCTGTTGCGT (site TAGTGTCCTAC),0.206
17,TAGTTTCCTTGGGTTCTAACCTGTTGCGT (site TAGTTTCCTAC),0.875
18,TAGTTTGCTTGGGTTCTAACCTGTTGCGA (site CGTCGGACTCT),0.00829
19,TAGTTTGCTTGGGTTCTAACCTGTTGCGA (site TAGTTTGCTTC),0.171
20,TATAATTCTTGGGTTCTAACCTGTTGCTT (site TATAATTCTAA),0.164
21,TATAATTCTTGGGTTCTAACCTGTTGCTT (site TTCAATTCTAA),0.146
22,TATACAACTTGGGTTCTAACCTGTTGCCT (site TATAAAACTAG),0.089

row,Sequence,recombinant barcode read abundance (log10)
1,TATACAACTTGGGTTCTAACCTGTTGCCT (site TATACAACTAG),0.112
2,TATACAACTTGGGTTCTAACCTGTTGCCT (site TATAGAACTAG),0.0301
3,TATACAACTTGGGTTCTAACCTGTTGCCT (site TATATAACTAG),0.0752
4,TATACAGCTTGGGTTCTAACCTGTTGCCT (site TAAACAGCTAG),0.156
5,TATACAGCTTGGGTTCTAACCTGTTGCCT (site TACACAGCTAG),0.192
6,TATACAGCTTGGGTTCTAACCTGTTGCCT (site TAGACAGCTAG),0.0546
7,TATACAGCTTGGGTTCTAACCTGTTGCCT (site TATACAGCTAG),0.592
8,TATACTACTTGGGTTCTAACCTGTTGCCT (site TATACTACTAG),0.0122
9,TATACTACTTGGGTTCTAACCTGTTGCCT (site TATACTGCTAG),0.0258
10,TATACTACTTGGGTTCTAACCTGTTGCTT (site CACACTACTAA),0.0534
11,TATACTACTTGGGTTCTAACCTGTTGCTT (site TATACTACTAA),0.0375
12,TATAGGACTTGGGTTCTAACCTGTTGCGT (site GATAGGACTAC),0.0102
13,TATAGGACTTGGGTTCTAACCTGTTGCGT (site TATAGGACTAC),2.03
14,TATAGTACTTGGGTTCTAACCTGTTGCCT (site TATAGTACTAG),0.152
15,TATAGTACTTGGGTTCTAACCTGTTGCCT (site TATTGTCCTAG),0.0337
16,TATCCATCTTGGGTTCTAACCTGTTGCCT (site TAACCATCTAG),0.0695
17,TATCCATCTTGGGTTCTAACCTGTTGCCT (site TACCCATCTAG),0.0382
18,TATCCATCTTGGGTTCTAACCTGTTGCCT (site TAGCCATCTAG),0.0545
19,TATCCATCTTGGGTTCTAACCTGTTGCCT (site TATCCATCTAG),0.618
20,TATGAGGCTTGGGTTCTAACCTGTTGCCT (site TATGAGGCTAG),0.433
